Test results reported in the supplement of paper PMC9663587.

Legend:
[1] = compound: CCc1cnn2c(NCc3ccc[n+]([O-])c3)cc(N3CCCC[C@H]3CCO)nc12; test: increase in dead-cell fraction, 72 h; higher = more death;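 note: breast cancer cell lines in 384-well plates, stained with Hoechst plus LIVE/DEAD far red dye and imaged, cells above an LDR intensity threshold counted dead, Hoechst-negative corpses included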
LEE011/Ribociclib = compound: CN(C)C(=O)c1cc2cnc(Nc3ccc(N4CCNCC4)cn3)nc2n1C1CCCC1 [LEE011/Ribociclib]; test: as above
BSJ-03-123 = compound: CC(=O)c1c(C)c2cnc(Nc3ccc(N4CCN(CCOCCOCCOCCNC(=O)COc5cccc6c5C(=O)N(C5CCC(=O)NC5=O)C6=O)CC4)cn3)nc2n(C2CCCC2)c1=O [BSJ-03-123]; test: as above
[2] = compound: CC(=O)c1c(C)c2cnc(Nc3ccc(N4CCNCC4)cn3)nc2n(C2CCCC2)c1=O; test: as above
[3] = compound: CCN1CCN(Cc2ccc(Nc3ncc(F)c(-c4cc(F)c5nc(C)n(C(C)C)c5c4)n3)nc2)CC1; test: as above
Flavopiridol = compound: CN1CC[C@H](c2c(O)cc(O)c3c(=O)cc(-c4ccccc4Cl)oc23)[C@H](O)C1 [Flavopiridol]; test: as above
THZ1 = compound: CN(C)C/C=C/C(=O)Nc1ccc(C(=O)Nc2cccc(Nc3ncc(Cl)c(-c4c[nH]c5ccccc45)n3)c2)cc1 [THZ1]; test: as above
Neratinib/HKI272 = compound: CCOc1cc2ncc(C#N)c(Nc3ccc(OCc4ccccn4)c(Cl)c3)c2cc1NC(=O)/C=C/CN(C)C [Neratinib/HKI272]; test: as above
AZD2014 = compound: CNC(=O)c1cccc(-c2ccc3c(N4CCOC[C@@H]4C)nc(N4CCOC[C@@H]4C)nc3n2)c1 [AZD2014]
BSJ-01-175 = compound: CN(C)C/C=C/C(=O)Nc1ccc(O[C@@H]2CCC[C@@H](Nc3ncc(Cl)c(-c4c[nH]c5ccccc45)n3)C2)cc1 [BSJ-01-175]
Tivantinib/ARQ197 = compound: O=C1NC(=O)[C@@H](c2cn3c4c(cccc24)CCC3)[C@@H]1c1c[nH]c2ccccc12 [Tivantinib/ARQ197]
AZD7762 = compound: NC(=O)Nc1cc(-c2cccc(F)c2)sc1C(=O)N[C@H]1CCCNC1 [AZD7762]
[4] = compound: CCC1=CN=CN=C1N2CCN(CC2)CC3=NC4=C(N3)C=C(C=C4)C(F)(F)F
Vorinostat = compound: O=C(CCCCCCC(=O)Nc1ccccc1)NO [Vorinostat]
[5] = compound: CCN1CCN(Cc2ccc(Nc3ncc(F)c(-c4cc(F)c5nc(C)n(C(C)C)c5c4)n3)nc2)CC1
Ipatasertib/GDC0068 = compound: CC(C)NC[C@@H](C(=O)N1CCN(c2ncnc3c2[C@H](C)C[C@H]3O)CC1)c1ccc(Cl)cc1 [Ipatasertib/GDC0068]
[6] = compound: CC(=O)Nc1cccc(-n2c(=O)n(C3CC3)c(=O)c3c(Nc4ccc(I)cc4F)n(C)c(=O)c(C)c32)c1
[7] = compound: COc1ccc2c(c1)[C@]1(C[C@H]1c1ccc3c(/C=C/c4ccc(CN5C[C@@H](C)O[C@@H](C)C5)cc4)n[nH]c3c1)C(=O)N2
AZD6738 = compound: C[C@@H]1COCCN1c1cc(C2([S@](C)(=N)=O)CC2)nc(-c2cc[nH]c3nccc2-3)n1 [AZD6738]
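Throughout, for GR50, 72 h: breast cancer and non-malignant breast epithelial cell lines, Deep Dye Drop or Dye Drop imaging, nine half-log doses, GR normalized to time-zero plates and DMSO-only controls.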

## MDAMB468
[1]; 0.0001 µM
  increase in dead-cell fraction: 0.0037
[1]; 0.0003162 µM
  increase in dead-cell fraction: -0.0009
[1]; 0.001 µM
  increase in dead-cell fraction: -0.0038
[1]; 0.003162 µM
  increase in dead-cell fraction: 0.0016
[1]; 0.01 µM
  increase in dead-cell fraction: 0.0237
[1]; 0.03162 µM
  increase in dead-cell fraction: 0.245
[1]; 0.1 µM
  increase in dead-cell fraction: 0.396
[1]; 0.3162 µM
  increase in dead-cell fraction: 0.462
[1]; 1 µM
  increase in dead-cell fraction: 0.494
LEE011/Ribociclib; 0.001 µM
  increase in dead-cell fraction: -0.0034
LEE011/Ribociclib; 0.003162 µM
  increase in dead-cell fraction: -0.0042
LEE011/Ribociclib; 0.01 µM
  increase in dead-cell fraction: 0.0065
LEE011/Ribociclib; 0.03162 µM
  increase in dead-cell fraction: -0.0098
LEE011/Ribociclib; 0.1 µM
  increase in dead-cell fraction: -0.0059
LEE011/Ribociclib; 0.3162 µM
  increase in dead-cell fraction: -0.0074
LEE011/Ribociclib; 1 µM
  increase in dead-cell fraction: -0.0071
LEE011/Ribociclib; 3.162 µM
  increase in dead-cell fraction: -0.01
LEE011/Ribociclib; 10 µM
  increase in dead-cell fraction: -0.0011
BSJ-03-123; 0.001 µM
  increase in dead-cell fraction: -0.0103
BSJ-03-123; 0.003162 µM
  increase in dead-cell fraction: 0.0028
BSJ-03-123; 0.01 µM
  increase in dead-cell fraction: 0.0034
BSJ-03-123; 0.03162 µM
  increase in dead-cell fraction: 0.0062
BSJ-03-123; 0.1 µM
  increase in dead-cell fraction: 0.0131
BSJ-03-123; 0.3162 µM
  increase in dead-cell fraction: 0.0169
BSJ-03-123; 1 µM
  increase in dead-cell fraction: 0.0332
BSJ-03-123; 3.162 µM
  increase in dead-cell fraction: 0.0309
BSJ-03-123; 10 µM
  increase in dead-cell fraction: 0.128
[2]; 0.0003162 µM
  increase in dead-cell fraction: 0.0165
[2]; 0.001 µM
  increase in dead-cell fraction: 0.0114
[2]; 0.003162 µM
  increase in dead-cell fraction: 0.0024
[2]; 0.01 µM
  increase in dead-cell fraction: -0.0003
[2]; 0.03162 µM
  increase in dead-cell fraction: 0.0031
[2]; 0.1 µM
  increase in dead-cell fraction: -0.006
[2]; 0.3162 µM
  increase in dead-cell fraction: -0.0071
[2]; 1 µM
  increase in dead-cell fraction: -0.001
[2]; 3.162 µM
  increase in dead-cell fraction: -0.0077
[3]; 0.001 µM
  increase in dead-cell fraction: 0.0107
[3]; 0.003162 µM
  increase in dead-cell fraction: 0.0019
[3]; 0.01 µM
  increase in dead-cell fraction: -0.0006
[3]; 0.03162 µM
  increase in dead-cell fraction: -0.0012
[3]; 0.1 µM
  increase in dead-cell fraction: -0.0016
[3]; 0.3162 µM
  increase in dead-cell fraction: -0.0021
[3]; 1 µM
  increase in dead-cell fraction: 0.019
[3]; 3.162 µM
  increase in dead-cell fraction: 0.101
[3]; 10 µM
  increase in dead-cell fraction: 0.545
Flavopiridol; 0.0001 µM
  increase in dead-cell fraction: -0.0044
Flavopiridol; 0.0003162 µM
  increase in dead-cell fraction: 0.0084
Flavopiridol; 0.001 µM
  increase in dead-cell fraction: -0.004
Flavopiridol; 0.003162 µM
  increase in dead-cell fraction: -0.0097
Flavopiridol; 0.01 µM
  increase in dead-cell fraction: 0.0094
Flavopiridol; 0.03162 µM
  increase in dead-cell fraction: 0.002
Flavopiridol; 0.1 µM
  increase in dead-cell fraction: 0.0269
Flavopiridol; 0.3162 µM
  increase in dead-cell fraction: 0.0941
Flavopiridol; 1 µM
  increase in dead-cell fraction: 0.274
THZ1; 0.0001 µM
  increase in dead-cell fraction: -0.0001
THZ1; 0.0003162 µM
  increase in dead-cell fraction: -0.0124
THZ1; 0.001 µM
  increase in dead-cell fraction: -0.0067
THZ1; 0.003162 µM
  increase in dead-cell fraction: -0.0067
THZ1; 0.01 µM
  increase in dead-cell fraction: 0.0039
THZ1; 0.03162 µM
  increase in dead-cell fraction: 0.0402
THZ1; 0.1 µM
  increase in dead-cell fraction: 0.165
THZ1; 0.3162 µM
  increase in dead-cell fraction: 0.149
THZ1; 1 µM
  increase in dead-cell fraction: 0.313
Neratinib/HKI272; 0.0003162 µM
  increase in dead-cell fraction: 0.0075
Neratinib/HKI272; 0.001 µM
  increase in dead-cell fraction: 0.0021
Neratinib/HKI272; 0.003162 µM
  increase in dead-cell fraction: 0.0111
Neratinib/HKI272; 0.01 µM
  increase in dead-cell fraction: 0.0196
Neratinib/HKI272; 0.03162 µM
  increase in dead-cell fraction: 0.0337
Neratinib/HKI272; 0.1 µM
  increase in dead-cell fraction: 0.0953
Neratinib/HKI272; 0.3162 µM
  increase in dead-cell fraction: 0.205
Neratinib/HKI272; 1 µM
  increase in dead-cell fraction: 0.381
Neratinib/HKI272; 3.162 µM
  increase in dead-cell fraction: 0.6
AZD2014
  GR50, 72 h: 0.523 µM
BSJ-01-175
  GR50, 72 h: 0.00931 µM
Tivantinib/ARQ197
  GR50, 72 h: 0.307 µM
AZD7762
  GR50, 72 h: 0.287 µM
[4]
  GR50, 72 h: 4.17 µM
Vorinostat
  GR50, 72 h: 1.57 µM
[5]
  GR50, 72 h: 2.34 µM
Ipatasertib/GDC0068
  GR50, 72 h: 2.36 µM
[6]
  GR50, 72 h: 0.442 µM
[7]
  GR50, 72 h: 0.00342 µM
AZD6738
  GR50, 72 h: > 10 µM
